In patent US20150307520A1, “NOVEL HETEROARYL AND HETEROCYCLE COMPOUNDS, COMPOSITIONS AND METHODS THEREOF” (HUTCHISON MEDIPHARMA LIMITED, priority 2012, published 2015):
pIC50: −log10 of the molar value.

How the values were obtained:
Assay type in all cases: biochemical
p110γ = p110γ (Homo sapiens, UniProt P48736); assay: Transcreener KINASE Assay, kinase inhibition of p110γ; conditions: for PI3Kγ IH % @ 1 uM: 1 uM test compound; for pIC50: read-out: PI3Kγ IC50
Method: Kinase Inhibition assays of p110α/p85α, p110β/p85α, p110δ/p85α and p110γ PI3K kinases including p110α/p85α, p110δ/p85α and p110γ are purchased from Invitrogen, and p110β/p85α is from Millipore. Primary screening data and IC50 values are measured using Transcreener™ KINASE Assay (Bellbrook, Catalog #3003-10K). […] It is a universal, homogenous, high throughput screening (HTS) technology using a far-red, competitive fluorescence polarization immunoassay based on the detection of ADP to monitor the activity of enzymes that catalyze group transfer reactions. Briefly, the Transcreener KINASE Assay is designed as a simple two-part, endpoint assay. […] The plate is sealed and incubated for 80 min at room temperature. Next, 25 ul ADP detection mix is added per well. The plate is sealed again and incubated for 60 min at room temperature, and then measure fluorescence polarization by Tecan Infinite F500 Reader. Data is analyzed and IC50s are generated using the add-in software for Microsoft Excel, Xlfit™ (version 2.0).

p110δ/p85α = p110δ/p85α (Homo sapiens, UniProt O00329); assay: Transcreener KINASE Assay, kinase inhibition of p110δ/p85α; conditions: for PI3Kδ IH % @ 1 uM: 1 uM test compound; for pIC50: read-out: PI3Kδ IC50
Method: (§1) PI3K kinases including p110α/p85α, p110δ/p85α and p110γ are purchased from Invitrogen, and p110β/p85α is from Millipore.
(§2) Primary screening data and IC50 values are measured using Transcreener™ KINASE Assay (Bellbrook, Catalog #3003-10K). […] It is a universal, homogenous, high throughput screening (HTS) technology using a far-red, competitive fluorescence polarization immunoassay based on the detection of ADP to monitor the activity of enzymes that catalyze group transfer reactions. Briefly, the Transcreener KINASE Assay is designed as a simple two-part, endpoint assay.
(§3) In the first step, the 25 ul kinase reaction is performed by preparing a reaction mixture containing 5 ul test compound (2% DMSO final concentration), 10 ul kinase, buffer (50 mM HEPES, 100 mM NaCl, 1 mM EGTA, 0.03% CHAPS, 3 mM MgCl2, and freshly supplemented 1 mM DTT), and 10 ul 30 uM PIP2/10 uM ATP. The plate is sealed and incubated for 80 min at room temperature. Next, 25 ul ADP detection mix is added per well. The plate is sealed again and incubated for 60 min at room temperature, and then measure fluorescence polarization by Tecan Infinite F500 Reader.
(§4) Data is analyzed and IC50s are generated using the add-in software for Microsoft Excel, Xlfit™ (version 2.0). IH %=(ADP amount under 2% DMSO-ADP amount under test compound)/ADP amount under 2% DMSO.

p110β/p85α = p110β/p85α (Homo sapiens, UniProt P42338); assay: Transcreener KINASE Assay, kinase inhibition of p110β/p85α; conditions: for PI3Kβ IH % @ 1 uM: 1 uM test compound; for pIC50: read-out: PI3Kβ IC50
Method: as §1, §2, §3, §4

Chain of p110δ/p85α (O00329 whole entry): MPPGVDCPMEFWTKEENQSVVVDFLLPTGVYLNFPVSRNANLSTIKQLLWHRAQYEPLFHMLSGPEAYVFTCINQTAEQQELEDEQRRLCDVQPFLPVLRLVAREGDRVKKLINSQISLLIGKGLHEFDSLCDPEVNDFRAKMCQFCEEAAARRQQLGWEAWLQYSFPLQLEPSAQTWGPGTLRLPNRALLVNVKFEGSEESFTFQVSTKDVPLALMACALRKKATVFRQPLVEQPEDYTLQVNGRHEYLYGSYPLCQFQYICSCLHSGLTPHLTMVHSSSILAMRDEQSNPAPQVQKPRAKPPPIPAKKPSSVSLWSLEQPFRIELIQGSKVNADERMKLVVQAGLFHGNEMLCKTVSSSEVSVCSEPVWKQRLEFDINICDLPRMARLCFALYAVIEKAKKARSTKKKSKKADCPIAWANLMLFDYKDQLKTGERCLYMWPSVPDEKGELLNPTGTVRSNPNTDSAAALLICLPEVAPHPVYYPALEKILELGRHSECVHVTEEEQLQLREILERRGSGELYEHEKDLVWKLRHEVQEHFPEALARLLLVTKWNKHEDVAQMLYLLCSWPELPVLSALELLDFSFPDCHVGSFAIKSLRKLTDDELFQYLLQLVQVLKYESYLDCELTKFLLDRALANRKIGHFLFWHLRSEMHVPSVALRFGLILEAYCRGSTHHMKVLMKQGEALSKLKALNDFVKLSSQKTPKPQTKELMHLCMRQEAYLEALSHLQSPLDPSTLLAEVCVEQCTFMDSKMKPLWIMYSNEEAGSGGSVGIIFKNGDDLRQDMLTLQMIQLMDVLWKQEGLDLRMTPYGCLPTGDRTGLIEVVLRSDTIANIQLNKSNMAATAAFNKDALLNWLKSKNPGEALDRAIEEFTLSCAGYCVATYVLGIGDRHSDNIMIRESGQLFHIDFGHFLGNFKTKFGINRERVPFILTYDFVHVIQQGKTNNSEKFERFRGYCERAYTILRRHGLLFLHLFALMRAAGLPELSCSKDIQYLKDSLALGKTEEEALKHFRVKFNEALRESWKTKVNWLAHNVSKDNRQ
Chain of p110δ/p85α (P27986 whole entry partner): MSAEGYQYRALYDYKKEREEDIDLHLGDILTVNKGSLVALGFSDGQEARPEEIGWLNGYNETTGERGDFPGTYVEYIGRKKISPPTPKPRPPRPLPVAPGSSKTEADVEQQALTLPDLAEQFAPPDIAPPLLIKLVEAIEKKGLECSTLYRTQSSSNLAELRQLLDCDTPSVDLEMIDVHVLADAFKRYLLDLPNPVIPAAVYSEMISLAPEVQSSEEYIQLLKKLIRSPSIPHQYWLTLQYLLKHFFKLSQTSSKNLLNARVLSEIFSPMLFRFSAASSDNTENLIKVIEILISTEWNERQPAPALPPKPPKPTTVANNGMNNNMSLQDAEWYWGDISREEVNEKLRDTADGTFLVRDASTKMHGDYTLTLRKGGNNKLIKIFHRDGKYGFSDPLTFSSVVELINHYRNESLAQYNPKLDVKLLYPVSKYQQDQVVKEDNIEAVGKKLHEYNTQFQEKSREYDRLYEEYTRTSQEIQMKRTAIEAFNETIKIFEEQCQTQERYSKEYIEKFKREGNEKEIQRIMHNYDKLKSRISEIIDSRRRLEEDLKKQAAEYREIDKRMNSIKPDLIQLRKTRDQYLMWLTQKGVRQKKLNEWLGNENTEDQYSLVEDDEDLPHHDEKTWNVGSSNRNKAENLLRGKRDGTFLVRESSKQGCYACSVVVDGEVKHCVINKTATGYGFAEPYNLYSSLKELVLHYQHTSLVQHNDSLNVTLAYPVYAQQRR
Chain of p110β/p85α (P42338 whole entry): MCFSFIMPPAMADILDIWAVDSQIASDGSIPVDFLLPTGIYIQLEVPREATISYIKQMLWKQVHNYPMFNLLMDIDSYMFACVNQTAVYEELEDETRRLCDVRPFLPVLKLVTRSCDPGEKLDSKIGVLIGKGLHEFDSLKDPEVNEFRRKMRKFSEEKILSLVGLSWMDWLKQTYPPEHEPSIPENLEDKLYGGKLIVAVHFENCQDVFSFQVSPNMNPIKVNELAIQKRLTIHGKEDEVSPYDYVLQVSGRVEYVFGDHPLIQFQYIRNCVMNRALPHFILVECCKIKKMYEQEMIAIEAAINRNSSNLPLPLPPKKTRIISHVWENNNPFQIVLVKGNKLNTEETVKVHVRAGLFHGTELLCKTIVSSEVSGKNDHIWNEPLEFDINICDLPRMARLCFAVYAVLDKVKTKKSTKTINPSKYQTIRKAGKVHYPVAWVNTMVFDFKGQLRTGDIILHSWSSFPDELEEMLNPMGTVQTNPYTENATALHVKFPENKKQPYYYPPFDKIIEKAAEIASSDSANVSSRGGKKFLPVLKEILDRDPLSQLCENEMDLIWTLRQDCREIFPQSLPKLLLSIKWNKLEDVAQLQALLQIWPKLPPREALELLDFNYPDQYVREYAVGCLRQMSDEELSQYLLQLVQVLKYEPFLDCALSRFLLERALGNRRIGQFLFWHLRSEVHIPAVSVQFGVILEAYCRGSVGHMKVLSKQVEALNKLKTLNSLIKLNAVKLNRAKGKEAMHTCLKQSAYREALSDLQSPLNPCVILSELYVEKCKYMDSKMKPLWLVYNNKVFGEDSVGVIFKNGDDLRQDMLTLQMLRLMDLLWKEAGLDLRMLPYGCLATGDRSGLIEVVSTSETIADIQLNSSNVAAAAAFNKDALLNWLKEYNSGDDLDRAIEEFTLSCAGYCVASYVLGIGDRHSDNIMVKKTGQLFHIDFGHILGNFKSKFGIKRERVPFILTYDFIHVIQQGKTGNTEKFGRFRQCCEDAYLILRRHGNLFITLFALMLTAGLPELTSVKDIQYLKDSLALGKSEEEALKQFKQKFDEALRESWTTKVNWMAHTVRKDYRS
Chain of p110β/p85α (P27986 2-724 partner): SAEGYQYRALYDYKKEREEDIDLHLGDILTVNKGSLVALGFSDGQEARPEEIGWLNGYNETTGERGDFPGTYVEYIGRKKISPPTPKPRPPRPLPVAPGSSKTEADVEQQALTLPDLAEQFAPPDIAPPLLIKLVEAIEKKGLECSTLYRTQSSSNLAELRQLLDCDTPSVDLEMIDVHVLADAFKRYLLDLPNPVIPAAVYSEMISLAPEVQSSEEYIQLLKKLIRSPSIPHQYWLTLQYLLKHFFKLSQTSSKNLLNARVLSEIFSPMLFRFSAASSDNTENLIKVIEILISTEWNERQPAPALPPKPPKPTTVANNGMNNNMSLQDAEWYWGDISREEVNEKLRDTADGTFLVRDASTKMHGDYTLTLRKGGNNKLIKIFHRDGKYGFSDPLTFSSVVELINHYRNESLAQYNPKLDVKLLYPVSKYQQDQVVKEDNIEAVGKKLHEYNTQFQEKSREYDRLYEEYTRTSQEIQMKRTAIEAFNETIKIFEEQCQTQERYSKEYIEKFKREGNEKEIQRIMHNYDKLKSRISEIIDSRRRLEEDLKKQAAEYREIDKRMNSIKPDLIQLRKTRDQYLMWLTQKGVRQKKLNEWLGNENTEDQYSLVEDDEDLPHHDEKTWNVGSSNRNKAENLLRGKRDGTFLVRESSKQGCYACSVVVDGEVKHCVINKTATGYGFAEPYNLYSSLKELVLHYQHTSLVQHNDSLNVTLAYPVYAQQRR
Chain of p110γ (P48736 whole entry): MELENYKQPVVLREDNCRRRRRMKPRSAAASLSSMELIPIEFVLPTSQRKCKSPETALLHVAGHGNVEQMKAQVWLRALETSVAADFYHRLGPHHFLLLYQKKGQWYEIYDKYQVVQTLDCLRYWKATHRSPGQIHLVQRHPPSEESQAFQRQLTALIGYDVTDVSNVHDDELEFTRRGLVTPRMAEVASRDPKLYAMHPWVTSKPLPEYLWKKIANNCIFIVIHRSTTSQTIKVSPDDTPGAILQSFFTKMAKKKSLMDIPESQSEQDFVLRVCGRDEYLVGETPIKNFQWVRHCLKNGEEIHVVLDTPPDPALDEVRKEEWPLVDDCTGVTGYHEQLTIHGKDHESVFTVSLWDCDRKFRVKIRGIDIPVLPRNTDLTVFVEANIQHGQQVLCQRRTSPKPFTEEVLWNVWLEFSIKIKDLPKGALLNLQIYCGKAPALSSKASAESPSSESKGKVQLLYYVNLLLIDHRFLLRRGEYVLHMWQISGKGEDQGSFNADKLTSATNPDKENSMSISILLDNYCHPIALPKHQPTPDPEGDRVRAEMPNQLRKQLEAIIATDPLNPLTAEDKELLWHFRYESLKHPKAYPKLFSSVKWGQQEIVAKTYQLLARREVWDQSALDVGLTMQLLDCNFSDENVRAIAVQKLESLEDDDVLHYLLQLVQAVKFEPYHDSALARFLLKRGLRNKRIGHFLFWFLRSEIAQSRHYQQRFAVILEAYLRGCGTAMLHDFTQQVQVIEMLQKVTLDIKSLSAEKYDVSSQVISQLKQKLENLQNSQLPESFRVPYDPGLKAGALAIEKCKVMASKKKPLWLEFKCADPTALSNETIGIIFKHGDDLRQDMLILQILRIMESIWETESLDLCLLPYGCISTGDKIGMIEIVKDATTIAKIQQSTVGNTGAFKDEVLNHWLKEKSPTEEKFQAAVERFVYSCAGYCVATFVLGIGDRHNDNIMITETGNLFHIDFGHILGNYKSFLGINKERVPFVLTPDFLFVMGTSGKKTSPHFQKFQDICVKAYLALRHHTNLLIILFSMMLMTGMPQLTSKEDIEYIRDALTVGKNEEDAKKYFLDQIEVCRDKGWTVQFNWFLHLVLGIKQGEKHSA

Structure (SMILES)	PI3Kγ IH % @ 1 uM (p110γ)	pIC50 (p110γ)	PI3Kδ IH % @ 1 uM (p110δ/p85α)	pIC50 (p110δ/p85α)	PI3Kβ IH % @ 1 uM (p110β/p85α)	pIC50 (p110β/p85α)
C[C@H](Nc1nc(N)ncc1C#N)c1cc2ncc(Cl)n2c(=O)n1-c1ccccc1 (single isomer, unassigned) [Compound 385]	95.9%	8.00	>100%	8.40	83.3%	7.12
C[S@+]([O-])c1c[nH]c2ncnc(N3CCC[C@H]3c3nn4ccc(Cl)c4c(=O)n3-c3cccc(F)c3)c12 (single isomer, unassigned) [Compound 386]	95.0%	7.68	>100%	8.52	76.8%	6.49
C[S+]([O-])c1c[nH]c2ncnc(N3CCC[C@H]3c3nn4ccc(Cl)c4c(=O)n3-c3cccc(F)c3)c12 (single isomer, unassigned) [Compound 387]	>100%	8.05	98.2%	8.15	39.6%	–
C[S+]([O-])c1c[nH]c2ncnc(N3CCC[C@H]3c3nn4ccc(Cl)c4c(=O)n3-c3ccccn3)c12 (single isomer, unassigned) [Compound 389]	87.9%	7.34	95.4%	8.15	32.7%	–
CC(Nc1nc(N)nc2c1C(=O)CCN2)c1cn2ccc(F)c2c(=O)n1-c1ccccc1 (single isomer, unassigned) [Compound 407]	>100%	–	94.9%	–	>100%	–
CC(=O)c1cnc(N)nc1N[C@H](C)c1cc2ncc(Cl)n2c(=O)n1-c1ccccc1 (single isomer, unassigned) [Compound 448]	82.3%	6.98	98.8%	7.77	55.9%	–
CC(Nc1nc(N)ncc1C#N)c1cn2ccc(F)c2c(=O)n1-c1ccccc1 (single isomer, unassigned) [Compound 449]	97.8%	–	96.1%	–	87.2%	–
CC(Nc1ncnc2[nH]cc(F)c12)c1cc2ncc(Cl)n2c(=O)n1-c1ccccc1 (single isomer, unassigned) [Compound 450]	98.6%	–	99.3%	–	76.9%	–
CC(Nc1ncnc2[nH]cc(F)c12)c1cc2ncc(Cl)n2c(=O)n1-c1ccccc1 (single isomer, unassigned) [Compound 451]	40.5%	–	96.4%	–	4.2%	–
CC(=O)c1cnc(N)nc1NC(C)c1cn2ccc(F)c2c(=O)n1-c1ccccc1 (single isomer, unassigned) [Compound 452]	92.5%	–	>100%	–	97.0%	–
CC(=O)c1cnc(N)nc1N1CC(C)(C)C1c1nn2ccc(Cl)c2c(=O)n1-c1ccccc1 (stereo in doubt) [Compound 484, (R)-2-(1-(5-acetyl-2-aminopyrimidin-4-yl)-3,3-dimethylazetidin-2-yl)-5-chloro-3-phenylpyrrolo[2,1-f][1,2,4]triazin-4(3H)-one]	>100%	8.22	>100%	10.00	88.3%	7.66
N#Cc1c(N)ncnc1N1CC[C@H]1c1nn2cccc2c(=O)n1-c1ccccc1 [Compound 8]	40.2%	–	76.2%	6.57	33.3%	–
Nc1ncnc(N2CCC[C@H]2c2nn3ccc(Cl)c3c(=O)n2-c2ccccc2)c1Cl [Compound 27]	92.7%	7.29	>100%	8.52	82.6%	7.00
COc1cccc(-n2c([C@@H]3CCN3c3ncnc4[nH]cnc34)nn3ccc(Cl)c3c2=O)c1 [Compound 33]	63.7%	–	71.9%	6.67	−3.1%	–
N#Cc1c[nH]c2ncnc(N3CC[C@H]3c3nn4ccc(Cl)c4c(=O)n3-c3ccc(F)cc3)c12 [Compound 37]	83.3%	7.05	81.2%	–	30.6%	–
N#Cc1cccc(-n2c([C@@H]3CCCN3c3ncnc4[nH]cc(C#N)c34)nn3ccc(Cl)c3c2=O)c1 [Compound 39]	16.5%	–	94.2%	–	20.7%	–
N#Cc1cccc(-n2c([C@@H]3CCCN3c3ncnc4[nH]cnc34)nn3ccc(Cl)c3c2=O)c1 [Compound 40]	6.5%	–	74.0%	–	19.8%	–
O=c1c2c(Cl)ccn2nc([C@@H]2CCCN2c2ncnc3[nH]cnc23)n1-c1ccc(F)cc1 [Compound 41]	>100%	7.68	91.7%	8.22	80.2%	7.18
CC(Nc1ncnc2[nH]cnc12)c1cn2ccc(Cl)c2c(=O)n1-c1ccccc1 (stereo not drawn) [Compound 87]	>100%	8.10	–	–	90.8%	7.31
Nc1ncc(C(=O)C(F)(F)F)c(N2CC[C@H]2c2nn3ccc(Cl)c3c(=O)n2-c2ccccc2)n1 [Compound 325]	–	–	–	6.28	–	–
Nc1nc(N2CC[C@H]2c2nn3ccc(Cl)c3c(=O)n2-c2ccccc2)c2cccn2n1 [Compound 329, (S)-2-(1-(2-aminopyrrolo[2,1-f][1,2,4]triazin-4-yl)azetidin-2-yl)-5-chloro-3-phenyl-pyrrolo[2,1-f][1,2,4]triazin-4(3H)-one]	91.6%	6.64	50.3%	–	–	–
N#Cc1cnc(N)nc1N1CCC1c1nn2ccc(Cl)c2c(=O)n1CC1CC1 (stereo not drawn) [Compound 373]	–	–	–	–	37.4%	–
C[C@H]1CN(c2ncnc(N)c2C#N)C1c1nn2ccc(Cl)c2c(=O)n1-c1ccccc1 (stereo partly drawn) [Compound 494]	93.5%	–	–	–	55.70%	–
CC(=O)c1cnc(N)nc1N1CC[C@H]1c1nn2ccc(Cl)c2c(=O)n1-c1cc(F)cc(F)c1 [Compound 495]	>100%	–	99.5%	–	–	–
CC(=O)c1cnc(N)nc1N1CC[C@H]1c1nn2ccc(C#N)c2c(=O)n1-c1ccccc1 [Compound 498]	>100%	7.89	>100%	7.68	–	–
CC(=O)c1c(N)ncnc1N1C[C@H](C)[C@H]1c1nn2ccc(Cl)c2c(=O)n1-c1ccccc1 [Compound 509]	>100%	–	>100%	–	–	–
CC(=O)c1cnc(N)nc1N1C[C@H](C)[C@H]1c1nn2ccc(Cl)c2c(=O)n1-c1cc(F)cc(F)c1 [Compound 518]	>100%	–	>100%	–	–	–
